{"source": "patent US20230248652A1", "about": "“BIODEGRADEABLE MULTI-CAVITY MICROPARTICLES AND THEIR USE IN TREATMENT” (OXFORD UNIVERSITY INNOVATION LIMITED, priority 2020, published 2023)", "test_system": "3D foam cell spheroid", "assay": "HIFU implantation of loaded mcPLGA MPs into 3D foam cell spheroids (fluorescence)", "type": "cell-based, human", "conditions": "HIFU exposure, 1 mg/ml", "procedure": "As the cells in the ex vivo porcine artery were considered non-viable, we have also tested the ability to deliver DAPI to viable cells using a 3D foam cell spheroid model (FIG. 13).\nTHP-1 cells, a human monocytic cell line (ATCC, Rockville, MD) were routinely cultured in Roswell Park Memorial Institute (RPMI) 1640 Medium supplemented with 100 IU/ml of penicillin, 100 µg/ml streptomycin, 2 mmol/l L-glutamine, 10% (vol/vol) FBS and incubated in a humidified atmosphere of 5% CO2 in an incubator at 37° C. The medium was replaced every 2-3 days by centrifuging these suspended cells at 125 g for 5 min. For differentiation of THP-1 monocytes into macrophages, THP-1 cells were seeded at a density of 7 × 10^5 cells/ml with differentiation medium, growth medium supplemented with 50 ng/mL phorbol 12-myristate 13-acetate (PMA), for 3 days to obtain macrophages. Subsequently, for foam cells induction, macrophages were incubated with 100 µg/ml oxLDL (Low Density Lipoprotein from Human Plasma, oxidized; Invitrogen,USA) in the differentiation medium for 2 days.\nFoam cells were used to produce a three-dimensional (3D) foam cell spheroid model by modification of the hanging drop method. Single-cell suspensions were generated from trypsinized monolayers. […]\nFluorescence microscopy was used to analyze the distribution of mcPLGA MPs and the release of therapeutics (FIG. 27c). […]", "data": [{"compound": "N=C(N)c1ccc(-c2cc3ccc(C(=N)N)cc3[nH]2)cc1", "note": "[DAPI]", "values": [{"measurement": "delivery of DAPI / particle distribution in foam cell spheroid", "value": "diffused through the membranes of the cells to stain the DNA of the foam cells"}]}]}
